Data set [1] deals with PANC-1. Description: Induction of apoptosis in human PANC-1 cells assessed as increase in cleaved caspase-3 level at 2 uM incubated for 48 hrs in presence of JQ1 by Western blot analysis. The format is functional, cell-based. A general note: Immunoblotting shows a protein as a band on a membrane.
The test system of data set [2] is PANC-1. Nature of the data set: Induction of DNA damage in human PANC-1 cells assessed as increase in gamma-H2AX level at 2 uM in presence of JQ1 by immunofluorescence based analysis. The data set is classed as functional, cell-based.
Data set [3] addresses T1, Protein cereblon/Poly [ADP-ribose] polymerase 1 (Homo sapiens, UniProt P09874+Q96SW2). Nature of the data set: PROTAC activity at CRBN/PARP1 in human BXPC-3 cells assessed as induction of PARP1 degradation incubated for 24 hrs by Western blot analysis relative to control. The data set is classed as cell-based.
Target sequence in this assay (P09874 2-1014 limits assumed): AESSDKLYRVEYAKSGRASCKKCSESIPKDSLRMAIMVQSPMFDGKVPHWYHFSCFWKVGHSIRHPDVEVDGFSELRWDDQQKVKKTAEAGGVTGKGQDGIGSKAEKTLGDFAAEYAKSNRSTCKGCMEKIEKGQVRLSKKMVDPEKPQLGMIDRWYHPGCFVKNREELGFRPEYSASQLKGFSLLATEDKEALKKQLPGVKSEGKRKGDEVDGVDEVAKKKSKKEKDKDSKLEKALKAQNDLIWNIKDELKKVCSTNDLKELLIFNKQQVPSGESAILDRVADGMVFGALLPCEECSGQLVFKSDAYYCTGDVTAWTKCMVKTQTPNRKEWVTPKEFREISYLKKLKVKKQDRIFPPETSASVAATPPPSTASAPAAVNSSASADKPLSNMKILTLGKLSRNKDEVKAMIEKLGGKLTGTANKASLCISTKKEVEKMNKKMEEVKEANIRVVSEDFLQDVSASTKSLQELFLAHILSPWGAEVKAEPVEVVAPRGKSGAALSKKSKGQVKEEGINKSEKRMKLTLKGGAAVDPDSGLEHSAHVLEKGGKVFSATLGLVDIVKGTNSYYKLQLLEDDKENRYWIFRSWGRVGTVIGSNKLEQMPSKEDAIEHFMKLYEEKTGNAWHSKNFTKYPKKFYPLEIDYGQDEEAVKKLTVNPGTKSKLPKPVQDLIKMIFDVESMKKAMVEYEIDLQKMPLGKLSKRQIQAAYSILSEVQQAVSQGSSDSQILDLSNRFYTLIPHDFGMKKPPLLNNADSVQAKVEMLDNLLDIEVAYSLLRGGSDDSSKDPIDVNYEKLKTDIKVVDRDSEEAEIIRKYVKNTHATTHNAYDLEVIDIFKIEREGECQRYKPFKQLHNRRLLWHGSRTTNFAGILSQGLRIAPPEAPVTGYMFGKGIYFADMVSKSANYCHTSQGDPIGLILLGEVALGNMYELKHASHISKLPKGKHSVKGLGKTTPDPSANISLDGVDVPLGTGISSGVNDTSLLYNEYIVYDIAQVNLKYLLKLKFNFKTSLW
Target sequence in this assay (Q96SW2 whole entry partner): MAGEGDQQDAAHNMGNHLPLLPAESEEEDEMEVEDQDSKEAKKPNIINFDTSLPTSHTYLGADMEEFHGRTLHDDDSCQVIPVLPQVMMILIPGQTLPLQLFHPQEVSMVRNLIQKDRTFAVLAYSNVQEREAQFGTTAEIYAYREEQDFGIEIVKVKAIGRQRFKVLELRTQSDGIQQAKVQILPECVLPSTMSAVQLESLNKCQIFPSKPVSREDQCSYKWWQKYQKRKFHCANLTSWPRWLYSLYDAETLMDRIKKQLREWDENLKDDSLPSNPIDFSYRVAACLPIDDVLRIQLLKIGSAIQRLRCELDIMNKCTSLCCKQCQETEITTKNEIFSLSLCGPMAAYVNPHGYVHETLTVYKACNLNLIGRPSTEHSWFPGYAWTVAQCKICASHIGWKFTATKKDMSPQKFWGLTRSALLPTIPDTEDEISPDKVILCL
Data set [4] has as its system PANC-1. Nature of the data set: Induction of cell cycle arrest in human PANC-1 cells assessed as decrease in CDK4 level at 2 uM incubated for 24 hrs in presence of JQ1 by […]. The data set is classed as functional. In general terms: In flow cytometry, cells or beads pass a laser one at a time.
For data set [5], the target named is T1, Protein cereblon/Poly [ADP-ribose] polymerase 1. Description: PROTAC activity at CRBN/PARP1 in human BXPC-3 cells assessed as induction of PARP1 degradation incubated for 24 hrs by Western blot analysis. The format is cell-based.
For data set [6], the system named is PANC-1. Nature of the data set: Synergistic inhibition of colony formation in human PANC-1 cells at 2 uM incubated for 14 days in presence of JQ1 by crystal violet staining based analysis. The format is functional, cell-based. The conditions noted are these: time 14.0 day.
Data set [7] concerns PANC-1. Description: Induction of cell cycle arrest in human PANC-1 cells assessed as accumulation at G2/M phase at 2 uM incubated for 24 hrs in presence of JQ1 by PI staining based flow cytometry relative to control. The format is functional.
The test system of data set [8] is BXPC-3. Nature of the data set: Synergistic antiproliferative activity against human BXPC-3 cells expressing wild-type BRCA assessed as combination index at 2:1 ratio of compound:JQ1 incubated for 5 days by CCK8 assay. The data set is classed as functional. The note with it: time 5 day.
The subject of data set [9] is PANC-1. Description: Induction of apoptosis in human PANC-1 cells at 2 uM incubated for 48 hrs in presence of JQ1 by Annexin V-FITC/PI staining based flow cytometry relative to control. The format is functional.
Data set [10] relates to PANC-1. Description: Antitumor activity against human PANC-1 cells xenografted in BALB/c mouse assessed as inhibition of tumor weight at 20 mg/kg, ip for 4 weeks administered for 5 days consecutively and 2 days without treatment on every week in presence of OL. The format is functional, organism-based. On the technique in general: A xenograft is tissue or cells of one species grown in another, often human tumour cells in immunodeficient mice.

Data set [11] can be described thus: Toxicity in BALB/c mouse xenografted with human PANC-1 cells assessed as pathological changes in heart at 20 mg/kg, ip for 4 weeks administered for 5 days consecutively and 2 days without treatment on every week in presence of OL by H and E staining based analysis. The format is organism-based. The note with it: in vivo, 672 h.
The test system of data set [12] is PANC-1. Nature of the data set: Induction of cell cycle arrest in human PANC-1 cells assessed as accumulation at G2 phase at 0.5 uM incubated for 24 hrs by PI staining based flow cytometry (reference value: 9.36 %). The data set is classed as functional.
The nature of data set [13]: Toxicity in BALB/c mouse xenografted with human PANC-1 cells assessed as pathological changes in liver at 20 mg/kg, ip for 4 weeks administered for 5 days consecutively and 2 days without treatment on every week by H and E staining based analysis. The format is organism-based. The note with it: in vivo, 672 h.
Data set [14] relates to PANC-1. Nature of the data set: Induction of apoptosis in human PANC-1 cells assessed as early apoptotic cells at 1 uM incubated for 48 hrs by Annexin V-FITC/PI staining based flow cytometry (reference value: 1.41 %). The format is functional.
Data set [15] concerns PANC-1. Nature of the data set: Induction of cell cycle arrest in human PANC-1 cells assessed as accumulation at G2 phase at 0.12 uM incubated for 24 hrs by PI staining based flow cytometry (reference value: 9.36 %). The format is functional.
Data set [16] is described as follows: Toxicity in BALB/c mouse xenografted with human PANC-1 cells assessed as pathological changes in spleen at 20 mg/kg, ip for 4 weeks administered for 5 days consecutively and 2 days without treatment on every week in presence of OL by H and E staining based analysis. The format is organism-based. The conditions noted are these: in vivo, 672 h.
Data set [17] concerns PANC-1. Description: Induction of cell cycle arrest in human PANC-1 cells assessed as accumulation at G2 phase at 1 uM incubated for 24 hrs in presence of OL by PI staining based flow cytometry (reference value: 9.36 %). The format is functional.
Data set [18] deals with PANC-1. Description: Anti-migration activity in human PANC-1 cells at 1 uM in presence of OL incubated for 24 hrs by wound healing assay. The data set is classed as functional, cell-based.
Data set [19] deals with PANC-1. Nature of the data set: Antitumor activity against human PANC-1 cells xenografted in BALB/c mouse assessed as reduction in tumor growth at 20 mg/kg, ip for 4 weeks administered for 5 days consecutively and 2 days without treatment on every week. The data set is classed as functional, organism-based.
Data set [20] has as its system PANC-1. Description: Induction of apoptosis in human PANC-1 cells assessed as necrotic cells at 0.5 uM incubated for 48 hrs by Annexin V-FITC/PI staining based flow cytometry (reference value: 3.09 %). The format is functional.
Data set [21] in a line: Toxicity in BALB/c mouse xenografted with human PANC-1 cells assessed as pathological changes in liver at 20 mg/kg, ip for 4 weeks administered for 5 days consecutively and 2 days without treatment on every week in presence of OL by H and E staining based analysis. The format is organism-based. The note with it: in vivo, 672 h.
The test system of data set [22] is PANC-1. Description: Induction of cell cycle arrest in human PANC-1 cells assessed as accumulation at S phase at 1 uM incubated for 24 hrs by PI staining based flow cytometry (reference value: 38.94 %). The format is functional.
Data set [23] deals with PANC-1. Description: Induction of apoptosis in human PANC-1 cells assessed as viable cells at 0.12 uM incubated for 48 hrs by Annexin V-FITC/PI staining based flow cytometry (reference value: 91.64 %). The conditions noted are these: read-out: Activity. The format is functional.
In data set [24] the test system is PANC-1. Nature of the data set: Induction of apoptosis in human PANC-1 cells assessed as viable cells at 0.5 uM incubated for 48 hrs by Annexin V-FITC/PI staining based flow cytometry (reference value: 91.64 %). The format is functional. The note with it: read-out: Activity.
Data set [25] in a line: Toxicity in BALB/c mouse xenografted with human PANC-1 cells assessed as animal morbidity at 20 mg/kg, ip for 4 weeks administered for 5 days consecutively and 2 days without treatment on every week in presence of OL. The format is organism-based. The conditions noted are these: in vivo, 672 h.
The test system of data set [26] is PANC-1. Nature of the data set: Induction of apoptosis in human PANC-1 cells assessed as late apoptotic cells at 0.25 uM incubated for 48 hrs by Annexin V-FITC/PI staining based flow cytometry (reference value: 3.87 %). The data set is classed as functional.
Data set [27] has as its system PANC-1. Description: Induction of cell cycle arrest in human PANC-1 cells assessed as accumulation at S phase at 0.12 uM incubated for 24 hrs by PI staining based flow cytometry (reference value: 38.94 %). The format is functional.
Data set [28] deals with PANC-1. Nature of the data set: Induction of apoptosis in human PANC-1 cells assessed as early apoptotic cells at 0.5 uM incubated for 48 hrs by Annexin V-FITC/PI staining based flow cytometry (reference value: 1.41 %). The data set is classed as functional.
For data set [29], the system named is PANC-1. Description: Antitumor activity against human PANC-1 cells xenografted in BALB/c mouse assessed as inhibition of tumor volume at 20 mg/kg, ip for 4 weeks administered for 5 days consecutively and 2 days without treatment on every week in presence of OL. The data set is classed as functional, organism-based.
For data set [30], the system named is PANC-1. Nature of the data set: Induction of apoptosis in human PANC-1 cells assessed as late apoptotic cells at 0.12 uM incubated for 48 hrs by Annexin V-FITC/PI staining based flow cytometry (reference value: 3.87 %). The format is functional.
Data set [31] can be described thus: Toxicity in BALB/c mouse xenografted with human PANC-1 cells assessed as pathological changes in kidney at 20 mg/kg, ip for 4 weeks administered for 5 days consecutively and 2 days without treatment on every week in presence of OL by H and E staining based analysis. The data set is classed as organism-based. The note with it: in vivo, 672 h.

Active and inactive are the calls of the source. The calls are words filed in the database; no cut-off is given here. Where only a bound is given, the exact number is not on record here.

Take `O=C1CCC(N2C(=O)c3cccc(NC(=O)CNCCCCCCCCCCC(=O)N4CCN(C(=O)c5cc(Cc6n[nH]c(=O)c7ccccc67)ccc5F)CC4)c3C2=O)C(=O)N1` (configuration not stated): the result in [1], in data set [2] and in data set [4] was Active. Further, in data set [3], the Emax (in general, the greatest response seen or fitted, relative to the assay's reference) is more than 92%. Also, the 50% degradation concentration (DC50) – broadly, the concentration giving 50% degradation – in data set [5] came out at 4.74 nM. Further, the figures for the Activity entry in data set [5] (dose <= 10.0 µM) and in data set [7] were “Dose-dependent-effect” and 8.3%, respectively. The inhibition result in [6] was “Active”.

With `O=C(c1cc(Cc2n[nH]c(=O)c3ccccc23)ccc1F)N1CCN(C(=O)C2CC2)CC1` [OLAPARIB], the CI in data set [8] is recorded as less than 1. Further, in data set [9], the Activity worked out at 26.9%.

Consider `Cc1sc2c(c1C)C(c1ccc(Cl)cc1)=N[C@@H](CC(=O)OC(C)(C)C)c1nnc(C)n1-2`, for which the inhibition entry in data set [10] and in data set [29] was “Active” each time. Moreover, the Activity result is on record as “Non-toxic” in data set [11]; 10.56% in data set [12]; “Non-toxic” in [13]; 6.72% in [14]; 13.25% in data set [15]; “Non-toxic” in [16]. Besides, the Activity in data set [17] is recorded as 15.74%; in data set [20], 3.56%; in data set [21] it was “Non-toxic”; in data set [22], 26.24%; in [25], “Non-toxic”; in data set [26], 4.07%. Further, the Activity is given as 40.51% in data set [27], 3.52% in data set [28], 3.99% in data set [30] and “Non-toxic” in data set [31]. The result in data set [18] and in data set [19] was Active. The viability at 0.12 µM in [23] is 90.2%. Moreover, the viability at 0.5 µM in data set [24] was 82.8%.

Values taken from ChEMBL document CHEMBL6096630, “Enhancing therapeutic efficacy in homologous recombination-proficient pancreatic cancer via the combination of PARP1-PROTAC and a BRD4 inhibitor” (Bioorg Med Chem, 2024).
